According to PMC2774256 (Bioorganic & medicinal chemistry, 2009):
Square brackets hold non-standard residues; d marks the D form. Ends that are not written are not given here. * marks the point of attachment. dNMeF = CN[C@H](Cc1ccccc1)C(=O)O; Cha = N[C@@H](CC1CCCCC1)C(=O)O; NMeL = CN[C@@H](CC(C)C)C(=O)O; dNMeV = CN[C@@H](C(=O)O)C(C)C; NMeV = CN[C@H](C(=O)O)C(C)C; Cbz = O=C(OCc1ccccc1)*; Bn = c1ccc(C*)cc1

Experiments:
[1] = test system: PL-45 pancreatic cancer cells; test: 3H-thymidine incorporation/growth inhibition assay
[2] = test system: BxPC-3 pancreatic cancer cells; test: 3H-thymidine incorporation/growth inhibition assay

Substance: F[dNMeF]V[Cha]S(Bn) [Compound 60]
- cytotoxicity / growth inhibition in words [1]: not effective
- cytotoxicity / growth inhibition in words [2]: not effective

Substance: [dF]L[NMeV][dL][dF] [Compound 61]
- cytotoxicity / growth inhibition in words [1]: relatively non-toxic
- cytotoxicity / growth inhibition in words [2]: relatively non-toxic

Substance: [dY][dNMeF]VLL [Compound 15]
- cytotoxicity / growth inhibition in words [1]: cytotoxic
- cytotoxicity / growth inhibition in words [2]: very poor cytotoxicity

Substance: FL[NMeV]L[dF] [Compound 62]
- cytotoxicity / growth inhibition in words [1]: relatively non-toxic
- cytotoxicity / growth inhibition in words [2]: relatively non-toxic

Substance: FL[dV][dL]L [Compound 37]
- cytotoxicity / growth inhibition in words [1]: not potent
- cytotoxicity / growth inhibition in words [2]: not potent

Substance: cyclo(FL[dNMeV][dK][dF]) [Compound 64]
- cytotoxicity / growth inhibition in words [1]: not toxic
- cytotoxicity / growth inhibition in words [2]: not toxic

Substance: F[dNMeF]V[Cha]L [Compound 49]
- cytotoxicity / growth inhibition in words [1]: underwhelming cytotoxicity
- cytotoxicity / growth inhibition in words [2]: underwhelming cytotoxicity

Substance: F[dNMeF][dV]LL [Compound 32]
- cytotoxicity / growth inhibition in words [1]: cytotoxic
- cytotoxicity / growth inhibition in words [2]: very poor cytotoxicity

Substance: FLVK(Cbz)[NMeL] [Compound 68]
- cytotoxicity / growth inhibition in words [1]: not toxic
- cytotoxicity / growth inhibition in words [2]: not toxic
